# Entries after “also recorded” stand apart in the source; their conditions may differ. Read-outs that look alike come from different tables or passages of the source. The star is where a group is joined. Myristoyl = CCCCCCCCCCCCCC(=O)*
# Legend:
# [1] = system: CREB phosphorylation in hippocampal pyramidal neurons; assay: CREB phosphorylation; format: cell-based, rat (Sprague-Dawley, 1- to 2-d-old pups); details: for concentrations inducing pCREB signal statistically different from vehicle: CRF F5,184 = 36.59, P < 0.001, UCN F5,175 = 23.00, P < 0.001; for τ of pCREB increase (time course): CRF df = 128, R^2 = 0.58, UCN df = 193, R^2 = 0.3, nonlinear curve fit
# [2] = system: CREB phosphorylation in hippocampal neurons; details: 10 μM H89, hippocampal neurons; ref Bayatti et al., 2003; cited from earlier work
# [3] = system: cAMP in hippocampal pyramidal neurons; assay: cAMP assay; format: cell-based, rat (Sprague-Dawley, 1- to 2-d-old pups); details: ISO 10 μM, 15 min, with IBMX 75 μM; positive control; P < 0.001 vs. '0 min'
# CRFR1 [4] = details: read-out: Ki for CRFR1, ref Perrin et al., 1993; cited from earlier work
# CRFR1α = details: stably transfected cell lines; ref Grammatopoulos et al., 2000; cited from earlier work
# hippocampal neurons = details: 2002, cited from earlier work
# CRFR1 [5] = details: modified yeast cell screen; ref Ladds et al., 2003; cited from earlier work
# [6] = system: MAPK signaling in human myocytes; details: UCN, but not CRF, ref Grammatopoulos et al., 2000; cited from earlier work
compound,measurement,setting,value
O=C1OC2(c3ccccc31)c1ccc(O)c(O)c1Oc1c2ccc(O)c1O [gallein],effect on CRF-induced CREB phosphorylation,"[1]; gallein 75 μM, CRF 40 nM, 15 min, F3,117 = 30.17, P < 0.001",blocked
same,effect on UCN-induced CREB phosphorylation,"[1]; gallein 75 μM, UCN 40 nM, 15 min, F3,118 = 21.74, P < 0.001",blocked
O=S(=O)(NCCNC/C=C/c1ccc(Br)cc1)c1cccc2cnccc12 [H89],effect on CRF-induced CREB phosphorylation,"[1]; H89 2 μM, CRF 40 nM, F3,105 = 44.94, P > 0.05",did not block; also recorded: failed to block
same,effect on UCN-induced CREB phosphorylation,"[1]; H89 2 μM, UCN 40 nM, F3,118 = 27.19, P > 0.05",failed to block; also recorded: did not block
same,involvement of PKA in CRF-induced CREB phosphorylation,[2],implicated PKA in CRF-induced CREB phosphorylation
pertussis toxin [PTX],effect on UCN-induced CREB phosphorylation,"[1]; PTX 500 ng/mL, 18 hr pre-treatment, UCN 40 nM, F3,116 = 40.60, P > 0.05",did not affect
cholera toxin [CTX],effect on CRF-induced CREB phosphorylation,[1],abolished; also recorded: blocked
same,effect on UCN-induced CREB phosphorylation,[1],abolished; also recorded: blocked
COc1cccc(-c2cc(=O)c3ccccc3o2)c1N [PD98059],effect on CRF-induced CREB phosphorylation,"[1]; PD98059 25 μM, CRF 40 nM, F3,86 = 30.25, P > 0.05",failed to affect; also recorded: unaffected
same,effect on STR-induced CREB phosphorylation,"[1]; PD98059 (25 μM), STR (70 nM), F3,122 = 51.88, P > 0.05, data not shown",unaffected
same,effect on UCN-induced CREB phosphorylation,"[1]; PD98059 (25 μM), UCN 40 nM, F3,126 = 31.29, P < 0.001","attenuated; also recorded: attenuated, but did not block"
N#CC(=C(/N)Sc1ccccc1N)/C(C#N)=C(/N)Sc1ccccc1N [U0126],effect on CRF-induced CREB phosphorylation,"[1]; U0126 10 μM, CRF 40 nM, F3,78 = 18.69, P > 0.05",failed to affect; also recorded: unaffected
same,effect on STR-induced CREB phosphorylation,"[1]; U0126 (10 μM), STR (70 nM), F3,126 = 43.18, P > 0.05, data not shown",unaffected
same,effect on UCN-induced CREB phosphorylation,"[1]; U0126 (10 μM), UCN 40 nM, F3,128 = 28.68, P < 0.001","attenuated; also recorded: attenuated, but did not block"
Nc1ncnc2c1ncn2C1CCCO1 (stereo not shown) [SQ22536],effect on CRF-induced CREB phosphorylation,"[1]; SQ22536 90 μM, CRF 40 nM, F3,83 = 22.02, P > 0.05",no effect; also recorded: failed to affect
same,effect on UCN-induced CREB phosphorylation,"[1]; SQ22536 90 μM, UCN 40 nM, F3,113 = 25.34, P > 0.05",no effect; also recorded: failed to affect
"CC(C)NCC(O)c1ccc(O)c(O)c1 (stereo not shown) [ISO, isoproterenol]",cAMP increase,[3],significantly increased cAMP levels
human/rat corticotropin releasing factor [CRF],concentrations inducing pCREB signal statistically different from vehicle,[1],≥ 40 nM
same,τ of pCREB increase (time course),[1],~ 10 min
same,Ki,CRFR1 [4],5.2 to 11 nM
same,"cAMP activation, CRF compared with UCN",CRFR1α,induce cAMP activation equally
same,effect on hippocampal neuron excitability,"hippocampal neurons; ref Aldenhoff et al., 1983, Blank et al.",rapidly increases hippocampal neuron excitability
same,effect on hippocampal LTP,hippocampal neurons; ref Blank et al.,enhances hippocampal LTP
rat urocortin I [UCN],concentrations inducing pCREB signal statistically different from vehicle,[1],≥ 40 nM
same,τ of pCREB increase (time course),[1],~ 7 min
same,CRFR1-dependent G protein activation,CRFR1 [5],CRFR1-dependent activation of Gαq
same,activation of MAPK signaling,[6],activates MAPK signaling
same,"cAMP activation, CRF compared with UCN",CRFR1α,induce cAMP activation equally
CCCCN(CC)c1nc(C)nc2c1c(C)cn2-c1c(C)cc(C)cc1C [CP154526],effect on STR-induced CREB phosphorylation,"[1]; CP154526 (100 nM) with STR 70 nM, F3,117 = 55.29, P < 0.001",blocked
"PKI 14-22 amide myristoylated: second PKA inhibitor (Myristoyl-SGRTGRRNA-NH2; SMILES CCCCCCCCCCCCCC(=O)N[C@@H](CO)C(=O)NCC(=O)N[C@@H](CCCNC(=N)N)C(=O)N[C@H](C(=O)NCC(=O)N[C@@H](CCCNC(=N)N)C(=O)N[C@@H](CCCNC(=N)N)C(=O)N[C@@H](CC(N)=O)C(=O)N[C@@H](C)C(N)=O)[C@@H](C)O; UniProt P61925 14-22, looked up, fragment)",effect on CRF-induced CREB phosphorylation,"[1]; PKI 14-22 amide myristoylated 1 μM, CRF 40 nM, F3,133 = 38.91, P > 0.05, data not shown",failed to block
same,effect on UCN-induced CREB phosphorylation,"[1]; PKI 14-22 amide myristoylated 1 μM, UCN 40 nM, F3,113 = 39.24, P > 0.05, data not shown",failed to block

# Source: PMC3168589 (The European journal of neuroscience, 2011)
